Reference: patent US20250215039A1, “NUCLEOSIDES FOR TREATING CANCER” (PRIMEFOUR THERAPEUTICS, INC., priority 2022, published 2025)
Read-outs that look alike come from different tables or passages of the source.

System: cancer cell lines
Assay: Cancer cell proliferation activity (CellTiterGlo, 72 h)
Format: cell-based
Conditions: 72 h, 72 h, read-out: IC50
Procedure: Dose response relationships on cell proliferation was assessed for representative Compounds of the Disclosure on cancer cell lines. Briefly, compound treatment of cells started one day after seeding with a final DMSO concentration of 0.1%, and was performed by nanodrop-dispensing using a Tecan Dispenser. 0.1% DMSO (solvent) and Staurosporine (10 μM) served as high control (100% viability) and low control (0% viability), respectively.
Cells were cultured in the appropriate media. For the assays, cells were seeded in white cell culture-treated flat and clear bottom multiwell plates and incubated at 37° C. overnight before compound was added. After incubation for 72 h at 37° C. at 5% or 10% CO2 dependent on the medium, cell plates were equilibrated to room temperature for one hour, CellTiterGlo reagent (Promega) was added and luminescence was measured approximately an hour later using a luminometer.
Raw data were converted into percent cell viability relative to the high and low control, which were set to 100% and 0%, respectively.
The IC50 values are summarized in Tables 9A-1, Table 10A, and Table 10B.

- IC50 (5637 cell line (bladder)): 220 nM
- IC50 (AS49 cell line (lung)): 240 nM
- IC50 (CLS439 cell line (bladder)): 610 nM
- IC50 (HS729 cell line (muscle)): 210 nM
- IC50 (JAR cell line (placenta)): 50 nM
- IC50 (Homo sapiens, 22Rv1, 72 h, 22RV1 cell line (prostate)): 220 nM
- IC50 (Homo sapiens, 786-0, 72 h, 786O cell line (kidney)): 110 nM
- IC50 (Homo sapiens, A204, 72 h, A204 cell line (muscle)): 70 nM
- IC50 (Homo sapiens, A673, 72 h, A673 cell line (bone)): 570 nM
- IC50 (Homo sapiens, A2780, 72 h, A2780 cell line (ovary)): 200 nM
- IC50 (Homo sapiens, A-375, 72 h, A375 cell line (skin)): 140 nM
- IC50 (Homo sapiens, A-431, 72 h, A431 cell line (skin)): 70 nM
- IC50 (Homo sapiens, ACHN, ACHN cell line (kidney)): 280 nM
- IC50 (Homo sapiens, ASPC1, 72 h, ASPC1 cell line (pancreas)): 50 nM
- IC50 (Homo sapiens, BT-20, 72 h, BT20 cell line (breast)): 100 nM
- IC50 (Homo sapiens, BXPC-3, 72 h, BXPC3 cell line (pancreas)): 210 nM
- IC50 (Homo sapiens, C-33-A, C33A cell line (cervical)): 190 nM
- IC50 (Homo sapiens, CAKI-1, 72 h, CAKI1 cell line (kidney)): 10 nM
- IC50 (Homo sapiens, COLO 205, 72 h, COLO205 cell line (colon)): 260 nM
- IC50 (Homo sapiens, COLO-678, 72 h, COLO678 cell line (colon)): 390 nM
- IC50 (Homo sapiens, Ca-Ski, CASKI cell line (cervical)): 60 nM
- IC50 (Homo sapiens, Caco-2, 72 h, CACO2 cell line (colon)): 280 nM
- IC50 (Homo sapiens, Calu-6, 72 h, CALU6 cell line (lung)): 60 nM
- IC50 (Homo sapiens, DLD-1, 72 h, DLD1 cell line (colon)): 260 nM
- IC50 (Homo sapiens, DU-145, 72 h, DU145 cell line (prostate)): 20 nM
- IC50 (Homo sapiens, EFO-21, 72 h, EFO21 cell line (ovary)): 130 nM
- IC50 (Homo sapiens, EJ-28, 72 h, EJ28 cell line (bladder)): 90 nM
- IC50 (Homo sapiens, Granta-519, 72 h, GRANTA-519 cell line (hematological)): 560 nM
- IC50 (Homo sapiens, HCT-15, 72 h, HCT15 cell line (colon)): 300 nM
- IC50 (Homo sapiens, HCT-116, 72 h, HCT116 cell line (colon)): 230 nM
- IC50 (Homo sapiens, HEK293, 72 h, HEK293 cell line (kidney)): 140 nM
- IC50 (Homo sapiens, HL-60, 72 h, HL-60 cell line (hematological)): 70 nM
- IC50 (Homo sapiens, HT-29, 72 h, HT29 cell line (colon)): 160 nM
- IC50 (Homo sapiens, HT-1080, 72 h, HT1080 cell line (connective tissue)): 720 nM
- IC50 (Homo sapiens, HeLa, HELA cell line (cervical)): 110 nM
- IC50 (Homo sapiens, HepG2, 72 h, HEPG2 cell line (liver)): 110 nM
- IC50 (Homo sapiens, Hs-578T, HS578T cell line, breast): 90 nM
- IC50 (Homo sapiens, IGROV-1, 72 h, IGROV1 cell line (ovary)): 50 nM
- IC50 (Homo sapiens, IMR-90, 72 h, IMR90 cell line, lung): 150 nM
- IC50 (Homo sapiens, J82, 72 h, J82 cell line (bladder)): 150 nM
- IC50 (Homo sapiens, JEG-3, 72 h, JEG3 cell line (placenta)): 40 nM
- IC50 (Homo sapiens, JIMT-1, 72 h, JIMT1 cell line (breast)): 20 nM
- IC50 (Homo sapiens, K562, 72 h, K-562 cell line (hematological)): 500 nM
- IC50 (Homo sapiens, Kasumi 1, 72 h, KASUMI-1 cell line (hematological)): 20 nM
- IC50 (Homo sapiens, L-363, 72 h, L-363 cell line (hematological)): 40 nM
- IC50 (Homo sapiens, LoVo, LOVO cell line (colon)): 40 nM
- IC50 (Homo sapiens, MCF7, 72 h, MCF7 cell line (breast)): 2400 nM
- IC50 (Homo sapiens, MDA-MB-231, 72 h, MDAMB231 cell line (breast)): 570 nM
- IC50 (Homo sapiens, MDA-MB-435, 72 h, MDAMB435 cell line (skin)): 250 nM
- IC50 (Homo sapiens, MDA-MB-436, 72 h, MDAMB436 cell line (breast)): 70 nM
- IC50 (Homo sapiens, MDA-MB-468, 72 h, MDAMB468 cell line (breast)): 100 nM
- IC50 (Homo sapiens, MG-63, 72 h, MG63 cell line (bone)): 2360 nM
- IC50 (Homo sapiens, MHH-ES-1, 72 h, MHHES1 cell line (bone)): 120 nM
- IC50 (Homo sapiens, MIA PaCa-2, 72 h, MIAPACA2 cell line (pancreas)): 2770 nM
- IC50 (Homo sapiens, MINO, MINO cell line (hematological)): 30 nM
- IC50 (Homo sapiens, MV4-11, 72 h, MV4-11 cell line (hematological)): 30 nM
- IC50 (Homo sapiens, NCI-H23, 72 h, NCI-H23 cell line (lung)): 70 nM
- IC50 (Homo sapiens, NCI-H82, 72 h, NCIH82 cell line (lung)): 70 nM
- IC50 (Homo sapiens, NCI-H292, 72 h, NCIH292 cell line (lung)): 470 nM
- IC50 (Homo sapiens, NCI-H460, 72 h, NCIH460 cell line (lung)): 150 nM
- IC50 (Homo sapiens, OVCAR-3, 72 h, OVCAR3 cell line (ovary)): 80 nM
- IC50 (Homo sapiens, OVCAR-4, 72 h, OVCAR4 cell line (ovary)): 130 nM
- IC50 (Homo sapiens, PANC-1, 72 h, PANC1 cell line (pancreas)): 2820 nM
- IC50 (Homo sapiens, PC-3, 72 h, PC3 cell line (prostate)): 130 nM
- IC50 (Homo sapiens, PLC-PRF-5, 72 h, PLCPRF5 cell line (liver)): 630 nM
- IC50 (Homo sapiens, Panc1005, 72 h, PANC1005 cell line (pancreas)): 130 nM
- IC50 (Homo sapiens, RD, RD cell line (muscle)): 190 nM
- IC50 (Homo sapiens, Ramos, RAMOS cell line (hematological)): 80 nM
- IC50 (Homo sapiens, SAOS-2, 72 h, SAOS2 cell line (bone)): 100 nM
- IC50 (Homo sapiens, SF-268, 72 h, SF268 cell line (brain)): 670 nM
- IC50 (Homo sapiens, SF-295, 72 h, SF295 cell line (brain)): 440 nM
- IC50 (Homo sapiens, SK-BR-3, 72 h, SKBR3 cell line (breast)): 10 nM
- IC50 (Homo sapiens, SK-HEP1, 72 h, SKHEP1 cell line (liver)): 190 nM
- IC50 (Homo sapiens, SK-LMS-1, 72 h, SKLMS1 cell line (uterus)): 90 nM
- IC50 (Homo sapiens, SK-MEL-5, 72 h, SKMEL5 cell line, skin): 420 nM
- IC50 (Homo sapiens, SK-MEL-28, 72 h, SKMEL28 cell line (skin)): 150 nM
- IC50 (Homo sapiens, SK-N-AS, SKNAS cell line (brain)): 160 nM
- IC50 (Homo sapiens, SK-N-SH, SKNSH cell line (brain)): 140 nM
- IC50 (Homo sapiens, SK-OV-3, 72 h, SKOV3 cell line (ovary)): 100 nM
- IC50 (Homo sapiens, SNB-75, 72 h, SNB75 cell line (brain)): 240 nM
- IC50 (Homo sapiens, SU-DHL10, 72 h, SU-DHL-10 cell line (hematological)): 200 nM
- IC50 (Homo sapiens, SU-DHL-6, 72 h, SU-DHL-6 cell line (hematological)): 50 nM
- IC50 (Homo sapiens, SW-620, 72 h, SW620 cell line (colon)): 90 nM
- IC50 (Homo sapiens, T-24, 72 h, T24 cell line (bladder)): 140 nM
- IC50 (Homo sapiens, TE-671, 72 h, TE671 cell line (muscle)): 620 nM
- IC50 (Homo sapiens, THP-1, 72 h, THP-1 cell line (hematological)): 980 nM
- IC50 (Homo sapiens, U2OS, U2OS cell line (bone)): 80 nM
- IC50 (Homo sapiens, U-87 MG, U87MG cell line (brain)): 380 nM
- IC50 (Homo sapiens, UMUC3, 72 h, UMUC3 cell line (bladder)): 460 nM
- IC50 (Homo sapiens, UO-31, 72 h, UO31 cell line (kidney)): 50 nM
- IC50 (Homo sapiens, WSU-NHL, WSU-NHL cell line (hematological)): 40 nM
- IC50 (MT-3, 72 h, MT3 cell line (breast)): 100 nM
- IC50 (NCI-H358M, NCIH358M cell line (lung)): 150 nM
- IC50 (PBMC, PBMC (hematological)): > 50000 nM
- IC50 (RD-ES, RDES cell line (bone)): 60 nM
Compound: CC[C@]1(CO)O[C@@H](n2cnc3c(N)nc(F)nc32)[C@H](O)[C@@H]1O [Cpd. No. 173, (2R,3S,4R,5R)-5-(6-amino-2-fluoro-9H-purin-9-yl)-2-ethyl-2-(hydroxymethyl)tetrahydrofuran-3,4-diol]
